Data on 1 compound can be found in publication PMC10046037, “GABRG2 Variants Associated with Febrile Seizures” (Biomolecules, 2023).

The experiment deals with T1, α1β3γ2 GABAA receptor, γ2Y468C variant (Homo sapiens, UniProt P14867+P18507+P28472, Y468C).
T1 construct: expressed in transfected cells; host or cells: HEK293T
T1 sequence (P14867 28-456): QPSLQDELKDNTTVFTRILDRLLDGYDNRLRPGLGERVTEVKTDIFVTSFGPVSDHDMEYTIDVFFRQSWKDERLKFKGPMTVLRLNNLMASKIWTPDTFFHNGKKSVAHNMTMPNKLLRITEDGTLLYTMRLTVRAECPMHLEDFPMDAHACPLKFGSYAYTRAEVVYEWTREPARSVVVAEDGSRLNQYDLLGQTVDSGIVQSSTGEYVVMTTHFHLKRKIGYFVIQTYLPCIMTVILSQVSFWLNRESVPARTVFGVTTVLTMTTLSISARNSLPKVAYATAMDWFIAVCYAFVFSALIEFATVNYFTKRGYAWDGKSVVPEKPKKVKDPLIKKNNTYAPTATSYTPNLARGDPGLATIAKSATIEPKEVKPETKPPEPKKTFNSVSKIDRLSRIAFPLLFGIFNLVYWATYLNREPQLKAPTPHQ
T1 sequence (P28472 26-473 isoform P28472-2): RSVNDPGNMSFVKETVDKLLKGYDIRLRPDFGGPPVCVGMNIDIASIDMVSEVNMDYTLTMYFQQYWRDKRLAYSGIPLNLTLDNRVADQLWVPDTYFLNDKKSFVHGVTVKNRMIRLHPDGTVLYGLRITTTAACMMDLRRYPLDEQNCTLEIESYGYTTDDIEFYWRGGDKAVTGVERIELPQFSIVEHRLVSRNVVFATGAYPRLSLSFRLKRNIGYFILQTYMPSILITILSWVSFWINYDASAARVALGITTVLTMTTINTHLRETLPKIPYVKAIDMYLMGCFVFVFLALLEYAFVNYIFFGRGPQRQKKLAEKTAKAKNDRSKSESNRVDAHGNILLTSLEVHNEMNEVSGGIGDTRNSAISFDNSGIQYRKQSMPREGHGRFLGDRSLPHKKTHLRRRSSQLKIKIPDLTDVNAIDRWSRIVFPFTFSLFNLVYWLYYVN
T1 sequence (P18507 40-475 Y468C): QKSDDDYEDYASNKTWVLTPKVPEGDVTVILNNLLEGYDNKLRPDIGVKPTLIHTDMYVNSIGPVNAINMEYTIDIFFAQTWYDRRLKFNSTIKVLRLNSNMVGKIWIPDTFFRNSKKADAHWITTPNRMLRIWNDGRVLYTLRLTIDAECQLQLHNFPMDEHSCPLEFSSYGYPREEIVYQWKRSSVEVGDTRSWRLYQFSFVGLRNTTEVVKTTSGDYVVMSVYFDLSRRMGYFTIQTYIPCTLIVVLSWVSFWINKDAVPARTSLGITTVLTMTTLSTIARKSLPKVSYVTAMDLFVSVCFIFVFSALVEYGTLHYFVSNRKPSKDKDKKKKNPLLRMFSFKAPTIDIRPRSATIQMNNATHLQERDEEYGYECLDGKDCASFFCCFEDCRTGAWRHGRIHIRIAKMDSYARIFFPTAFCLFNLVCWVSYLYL
As to the kind of experiment: Automated patch clamp of GABA-elicited currents (SyncroPatch 384PE), γ2Y468C. Type of experiment: cell-based. The note with it: mean. The protocol:
The coding sequences of human α1 (GABRA1, NM_000806), β3 (GABRB3, NM_021912), and γ2 (GABRG2, NM_198904.2) GABAAR subunits were subcloned into the pcDNA3.1 expression vectors (Invitrogen, Waltham, MA, USA).
HEK293T cells (ATCC, CRL-11268) were cultured at 37 °C in a humidified 5% CO2 incubator and maintained in Dulbecco’s modified Eagle’s medium (Invitrogen) supplemented with 10% fetal bovine serum (Life Technologies, Carlsbad, CA, USA), and 100 IU/mL of penicillin/streptomycin (Life Technologies). For the expression experiments, 4 × 10^5 cells were transfected using polyethylenimine (PEI) reagent (40 kD, Polysciences, Warrington, PA, USA) at a DNA: to transfection reagent ratio of 1:2.5 and harvested 36 h after transfection. To express WT and variant α1β3γ2 receptors, a total of 3 µg of α1, β3, and γ2 (WT or mutant) subunit cDNAs were transfected at a ratio of 1:1:1 into 60 mm culture dishes. For the mock-transfected condition, an empty pcDNA3.1 vector was added for a final cDNA transfection amount of 3 μg. For the electrophysiology experiments, 2.5 × 10^5 cells were plated in 100 mm culture dishes and transfected after 24 h with 3 μg of cDNA of each α1, β3, γ2 (wild-type or mutant) subunit, using X-tremeGENE HP DNA transfection Reagent (Roche Diagnostics, Basel, Switzerland), following the manufacturer’s protocol. Recordings were obtained forty-eight hours after transfection.
Whole-cell patch clamp recordings were conducted according to the manufacturer’s standard procedure for the SyncroPatch 384 [31]. Whole-cell voltage-clamp recordings were performed at room temperature on HEK293T cells 48 h after transfection with GABAAR subunits, using the SyncroPatch 384PE (Nanion Technologies, Munich, Germany). Cells, at a concentration of 400,000 cells/mL, were harvested in suspension in external solution containing 140 mM of NaCl, 2 mM of CaCl2, 4 mM of KCl, 1 mM of MgCl2, 5 mM of glucose, and 10 mM of HEPES (pH 7.4 with NaOH, 298 mOsm). The cells were loaded in a multi-hole (4 holes per well) 384-well Nanion patch clamp (NPC) chip with a thick borosilicate glass bottom and an average resistance pore size of […]. Built-in electrophysiological protocols were used, and the data were digitized using PatchControl 384 (Nanion Technologies) application. Using PatchControl 384, electrophysiological parameters, such as seal resistance, capacitance, and series resistance, were determined for each well after the application of a test pulse, and subsequently monitored over time. […] The currents were normalized to the maximal response of each well, and the concentration–response curves were calculated from single-point additions. The EC50 values for each variant or wild-type receptor were calculated across multiple wells for each experimental condition.

Regarding `NCCCC(=O)O` [GABA, γ-aminobutyric acid], the Deactivation (1 mM GABA for 5 ms, HEK293T, -80 mV) is on record as 433.9 ms. Also, under “1 mM GABA for 5 ms, HEK293T”, the “IMAX (maximal GABA-evoked peak current)” value was determined as 0.80 nA. Further, the “IMAX variant/IMAX WT” value (1 mM GABA) worked out at 40.06%. In addition, the “Rise Time” value (10–90% rise time, 1 mM GABA for 5 ms, HEK293T) turned out to be 26.52 ms.
